In patent US20230000869A1, “NOVEL ALK2 INHIBITORS AND METHODS FOR INHIBITING BMP SIGNALING” (The Brigham and Women's Hospital, Inc., priority 2017, published 2023):

Assays:
ALK1 = target: T1, ALK1 (Homo sapiens, UniProt P37023); assay: TR-FRET enzymatic assay, ALK1 kinase, 1536-well; type: biochemical; details: for IC50 / ALK1 Span: TR-FRET; for IC50: 10 nM ALK, Ulight topo II substrate 50 nM, ATP 10 uM (Table 1); for ALK1 Span: span of the concentration-response curve
T1 construct: purchased Life technology (Fredrick, Md.) and/or CARNA BIOSCIENCES Inc. (Kobe, Japan)
T1 sequence (P37023 22-503): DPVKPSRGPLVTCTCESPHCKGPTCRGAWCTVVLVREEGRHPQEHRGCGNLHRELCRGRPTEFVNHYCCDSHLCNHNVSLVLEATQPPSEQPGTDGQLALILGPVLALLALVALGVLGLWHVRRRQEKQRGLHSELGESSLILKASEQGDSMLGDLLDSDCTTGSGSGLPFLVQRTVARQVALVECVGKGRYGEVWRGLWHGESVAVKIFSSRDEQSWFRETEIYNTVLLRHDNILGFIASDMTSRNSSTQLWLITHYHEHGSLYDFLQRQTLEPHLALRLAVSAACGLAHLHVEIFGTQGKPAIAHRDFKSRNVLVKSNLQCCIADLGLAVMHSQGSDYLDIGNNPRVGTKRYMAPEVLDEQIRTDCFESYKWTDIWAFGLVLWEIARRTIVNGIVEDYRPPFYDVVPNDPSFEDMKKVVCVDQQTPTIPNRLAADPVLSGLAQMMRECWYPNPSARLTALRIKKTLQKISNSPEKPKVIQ
From the text: (§1) We have developed six ALK kinase enzyme assays for determination of compound activities on ALK1, ALK2, ALK3, ALK4, ALK5 and ALK6. For the assay development, we had tested a number of substrates and assay conditions that led to the final optimized assay protocols with good assay windows with signal to basal (S/B) ratios above 20 fold for all six ALK assays (FIG. 1). In our knowledge, these ALK kinase assays have not been reported elsewhere.
(§2) ALK1 and ALK2-ALK6 were obtained from Life technology (Fredrick, Md.) and CARNA BIOSCIENCES Inc. (Kobe, Japan). Ulight-DNA Topoisomerase 2 alpha (Thr-1342) peptide and Europium anti-phospho-DNA Topoisomerase 2 alpha (Thr-1342) antibody was from Perkin Elmer Inc. The kinase buffer was composed of 50 mM HEPES pH7.0, 10 mM MgCl2, 3 mM MnCl2, 0.005% Tween-20 and 2 mM DTT. The compound plates and the white solid MB assay plates were purchased from Greiner Bio-one (Monroe, N.C.).
(§3) The binding of Eu-anti-phospho-peptide antibody to the phosphorylated Ulight peptide substrate bring both Eu donor and Ulight acceptor dye into close proximity. Upon excitation at 320-340 nm, the emission energy from Eu donor is transferred to Ulight acceptor dye that will generate light at 665 nm. The intensity light emission is proportional to the level of the peptide phosphorylation by ALKs. The assay was optimized and performed in 1536 plate (Table 1). Briefly, the ALKs enzymatic assay was initiated by dispense 2.5 ul enzyme with a final concentration at 10 nM prepared in 1× kinase reaction buffer. The assay plate was then added with compounds with the Pintool station (23 nl/well compound dilutions in DMSO solution) that was followed by incubation at room temperature for 10 minutes. Then 2.5 ul/well substrate was added in which 50 nM peptide substrate mixed with 10 uM, 100 uM or 1 mM ATP (final concentration). The assay plate was incubated at room temperature for 60 minutes and the kinase reaction was stopped by addition of 5 ul/well of 4 nM Eu-anti-phospho-peptide antibody with 12 mM EDTA prepared in 1× detection buffer. The assay plate was measured in an EnVision plate reader (Perkin Elmer) in the TR-FRET detection mode (excitation at 340 nm and emission at 665 nm).

ALK2 = target: T2, ALK2 (Homo sapiens, UniProt Q04771); assay: TR-FRET enzymatic assay, ALK2 kinase, 1536-well; type: biochemical; details: for IC50 / ALK2 Span: TR-FRET; for IC50: 10 nM ALK, Ulight topo II substrate 50 nM, ATP 10 uM (Table 1); for ALK2 Span: span of the concentration-response curve
T2 construct: purchased Life technology (Fredrick, Md.) and/or CARNA BIOSCIENCES Inc. (Kobe, Japan)
T2 sequence (Q04771 21-509): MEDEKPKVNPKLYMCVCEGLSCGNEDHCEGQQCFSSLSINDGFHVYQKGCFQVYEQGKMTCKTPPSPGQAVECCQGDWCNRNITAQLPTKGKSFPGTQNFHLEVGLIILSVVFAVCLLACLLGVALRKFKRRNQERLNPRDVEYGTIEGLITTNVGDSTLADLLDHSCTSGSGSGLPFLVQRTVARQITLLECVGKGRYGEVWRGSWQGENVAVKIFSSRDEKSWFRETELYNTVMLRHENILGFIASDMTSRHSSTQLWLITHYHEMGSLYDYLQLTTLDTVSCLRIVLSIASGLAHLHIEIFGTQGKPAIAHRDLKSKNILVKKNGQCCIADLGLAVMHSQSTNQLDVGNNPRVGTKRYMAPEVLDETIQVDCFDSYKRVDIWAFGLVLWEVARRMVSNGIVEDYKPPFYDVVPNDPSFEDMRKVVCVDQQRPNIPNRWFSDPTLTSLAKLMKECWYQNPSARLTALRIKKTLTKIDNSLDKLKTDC
From the text: as §1, §2, §3

ALK6 = target: T3, ALK6 (Homo sapiens, UniProt O00238); assay: TR-FRET enzymatic assay, ALK6 kinase, 1536-well; type: biochemical; details: for IC50: 10 nM ALK, Ulight topo II substrate 50 nM, ATP 10 uM (Table 1); for ALK6 Span: span of the concentration-response curve
T3 construct: purchased Life technology (Fredrick, Md.) and/or CARNA BIOSCIENCES Inc. (Kobe, Japan)
T3 sequence (O00238 14-502): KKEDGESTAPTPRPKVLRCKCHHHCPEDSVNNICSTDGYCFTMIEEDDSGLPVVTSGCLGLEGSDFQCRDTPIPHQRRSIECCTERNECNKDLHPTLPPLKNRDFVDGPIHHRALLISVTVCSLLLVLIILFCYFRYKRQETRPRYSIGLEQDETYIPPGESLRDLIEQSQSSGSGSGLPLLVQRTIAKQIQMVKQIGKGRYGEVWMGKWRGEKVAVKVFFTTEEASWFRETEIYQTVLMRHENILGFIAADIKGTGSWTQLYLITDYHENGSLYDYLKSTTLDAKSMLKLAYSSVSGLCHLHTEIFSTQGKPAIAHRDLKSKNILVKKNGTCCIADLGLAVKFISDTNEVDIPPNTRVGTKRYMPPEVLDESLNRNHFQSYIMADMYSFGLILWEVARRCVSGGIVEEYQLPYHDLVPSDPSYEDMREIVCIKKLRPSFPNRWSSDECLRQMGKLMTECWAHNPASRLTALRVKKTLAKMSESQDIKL
From the text: as §1, §2, §3

TGFβ = assay: Luciferase reporter gene assay for TGFβ activity (HEK293T SBE-Luc SMAD2/3 reporter, TGFβ agonist); type: cell-based; details: Homo sapiens, HEK-293T, TGFβ 5 ng/mL
Summary of the method: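 TGFβ activity was measured in HEK293T SBE-Luc cells stimulated with 5 ng/mL TGFβ, at compound 10000-30 nM final. ALK2 activity was measured in C2C12 BRE-Luc cells stimulated with 50 ng/mL BMP6, at compound 1000-0.3 nM final. Compound was preincubated 45 min in 2% FBS medium; after ≥18 h agonist exposure, luminescence was read and inhibition expressed as % signal loss versus background-subtracted agonist controls.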

[1] = FIG. 3, ATP 10 uM versus 100 uM or 1 mM

IC50 (ALK1) [nM] | ALK1 Span (ALK1) | IC50 (ALK2) [nM] | ALK2 Span (ALK2) | IC50 (ALK6) [nM] | ALK6 Span (ALK6) | IC50 (TGFβ) [nM] | Compound | activity in ALK1 in the presence of 10, 100, or 1,000 uM ATP (ALK1; [1]) | activity in ALK2 in the presence of 10, 100, or 1,000 uM ATP (ALK2; [1])
325 | 89.1 | 54.3 | 109.4 | 2400 | 86.5 | 22 | Cc1cc(-c2cnn3cc(N4CCC(N5CCN(C)CC5)CC4)cnc23)c2ccccc2n1 [Compound 8] |  | 
671 | 93.42 | 178 | ~117.8 | 4060 | 91.28 | 27 | Cc1cc(-c2cnn3cc(N4CCC(N5CCNCC5)CC4)cnc23)c2ccccc2n1 [Compound 34] |  | 
269 | 91.4 | 111 | ~117.5 | 2980 | 89.9 | 55 | Cc1cc(-c2cnn3cc(N4CCC(N5CCOCC5)CC4)cnc23)c2ccccc2n1 [Compound 11] |  | 

The next lines start with the compound.

Compound | IC50 (ALK1) [nM] | ALK1 Span (ALK1) | IC50 (ALK2) [nM] | ALK2 Span (ALK2) | IC50 (ALK6) [nM] | ALK6 Span (ALK6) | IC50 (TGFβ) [nM] | activity in ALK1 in the presence of 10, 100, or 1,000 uM ATP (ALK1; [1]) | activity in ALK2 in the presence of 10, 100, or 1,000 uM ATP (ALK2; [1])
COc1cc2c(-c3cnn4cc(N5CCC(N6CCN(C)CC6)CC5)cnc34)ccnc2cc1F [Compound 15, 7-fluoro-6-methoxy-4-(6-(4-(4-methylpiperazin-1-yl)piperidin-1-yl)pyrazolo[1,5-a]pyrimidin-3-yl)quinoline] | 1520 | 92.3 | 102 | ~117.8 | 10300 | 80.81 | 284 |  | 
c1ccc2c(-c3cnn4cc(-c5ccc(N6CCNCC6)cc5)cnc34)ccnc2c1 [TRND00262637-13] |  |  |  |  |  |  |  | activity reduced in the higher ATP concentrations | activity reduced in the higher ATP concentrations
